pEC50, pKi: −log10 of the molar value.
Key:
Melanocortin receptor 3 [1] = molecular target: T1, Melanocortin receptor 3 (Homo sapiens, UniProt P41968); test: Agonist activity at human recombinant MC3 receptor expressed in CHO cells assessed as cAMP accumulation by enzyme fragment complementation assay; format: functional, cell-based
[2] = molecular target: T2, Melanocyte-stimulating hormone receptor (Homo sapiens, UniProt Q01726); test: Agonist activity at human recombinant MC1 receptor expressed in HEK293 cells assessed as cAMP accumulation by enzyme fragment complementation assay; format: functional, cell-based
Target sequence in this assay (Q01726 whole entry, the tested form may be a part): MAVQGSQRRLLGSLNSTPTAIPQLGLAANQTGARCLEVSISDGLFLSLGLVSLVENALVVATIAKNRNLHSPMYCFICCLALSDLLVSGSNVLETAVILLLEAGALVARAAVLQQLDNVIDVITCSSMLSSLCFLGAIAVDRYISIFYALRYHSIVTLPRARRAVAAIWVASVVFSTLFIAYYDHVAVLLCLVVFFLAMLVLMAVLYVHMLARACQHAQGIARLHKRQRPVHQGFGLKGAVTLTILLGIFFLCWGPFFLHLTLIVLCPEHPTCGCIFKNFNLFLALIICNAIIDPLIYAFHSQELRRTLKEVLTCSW

Melanocortin receptor 5 [3] = molecular target: T3, Melanocortin receptor 5 (Homo sapiens, UniProt P33032); test: Agonist activity at human recombinant MC5 receptor expressed in HEK293 cells assessed as cAMP accumulation by beta lactamase reporter gene assay; format: functional, cell-based
Melanocortin receptor 4 [4] = molecular target: T4, Melanocortin receptor 4 (Homo sapiens, UniProt P32245); test: Agonist activity at human recombinant MC4 receptor expressed in CHO cells by cAMP responsive beta lactamase reporter gene assay; format: functional, cell-based
Melanocortin receptor 5 [5] = molecular target: T3, Melanocortin receptor 5; test: Agonist activity at human recombinant MC5 receptor expressed in HEK293 cells assessed as cAMP accumulation by beta lactamase reporter gene assay relative to alpha melanocyte-stimulating hormone; format: functional, cell-based
Melanocortin receptor 4 [6] = molecular target: T4, Melanocortin receptor 4; test: Displacement of [125I]-MT-II from human recombinant MC4 receptor expressed in CHO cells by scintillation counting
Melanocortin receptor 3 [7] = molecular target: T1, Melanocortin receptor 3; test: Agonist activity at human recombinant MC3 receptor expressed in CHO cells assessed as cAMP accumulation by enzyme fragment complementation assay relative to […]; format: functional, cell-based
[8] = molecular target: T2, Melanocyte-stimulating hormone receptor; test: Agonist activity at human recombinant MC1 receptor expressed in HEK293 cells assessed as cAMP accumulation by enzyme fragment complementation assay relative to alpha melanocyte-stimulating hormone; format: functional, cell-based
Target sequence in this assay (Q01726 whole entry, looked up, the tested form may be a part): as the sequence (Q01726 whole entry, the tested form may be a part) above

[9] = Lipophilicity, log D at pH 7.4; format: physicochemical; settings: buffer
[10] = Intrinsic clearance in human liver microsome measured per mg of protein; format: ADME; settings: liver microsomes

T4 sequence (P32245 whole entry): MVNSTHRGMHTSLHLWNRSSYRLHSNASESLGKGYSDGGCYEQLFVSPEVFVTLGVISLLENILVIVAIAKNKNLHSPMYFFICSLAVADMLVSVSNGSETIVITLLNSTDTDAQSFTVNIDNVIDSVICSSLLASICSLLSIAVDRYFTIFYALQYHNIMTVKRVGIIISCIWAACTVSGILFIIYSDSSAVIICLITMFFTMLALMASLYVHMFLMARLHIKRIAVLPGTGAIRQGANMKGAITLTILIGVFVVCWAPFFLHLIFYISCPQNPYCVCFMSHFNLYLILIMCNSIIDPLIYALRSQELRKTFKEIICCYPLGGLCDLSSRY
T1 sequence (P41968 whole entry, the tested form may be a part): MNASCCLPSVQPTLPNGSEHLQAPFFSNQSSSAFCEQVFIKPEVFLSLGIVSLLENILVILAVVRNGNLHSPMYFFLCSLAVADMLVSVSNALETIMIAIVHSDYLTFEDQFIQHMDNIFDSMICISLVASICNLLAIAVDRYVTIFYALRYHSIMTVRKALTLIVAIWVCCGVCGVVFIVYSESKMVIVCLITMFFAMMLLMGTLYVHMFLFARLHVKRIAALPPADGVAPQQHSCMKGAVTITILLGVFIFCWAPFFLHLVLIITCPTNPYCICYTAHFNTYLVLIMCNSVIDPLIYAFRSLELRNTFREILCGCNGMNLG
T3 sequence (P33032 whole entry): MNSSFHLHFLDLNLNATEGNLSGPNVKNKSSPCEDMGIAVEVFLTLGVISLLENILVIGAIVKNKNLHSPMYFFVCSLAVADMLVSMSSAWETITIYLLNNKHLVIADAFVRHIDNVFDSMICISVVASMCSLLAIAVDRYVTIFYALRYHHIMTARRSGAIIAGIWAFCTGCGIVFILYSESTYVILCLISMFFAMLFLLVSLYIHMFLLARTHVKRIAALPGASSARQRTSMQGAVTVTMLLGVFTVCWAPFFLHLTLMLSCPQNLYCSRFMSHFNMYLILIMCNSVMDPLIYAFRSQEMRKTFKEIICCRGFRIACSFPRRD

pEC50 (Melanocortin receptor 3 [1]) | pEC50 [2] | pEC50 (Melanocortin receptor 4 [4]) | pKi (Melanocortin receptor 4 [6]) | SMILES | other results
< 4.48 | < 5.21 | 6.44 | 6.46 | C[C@@H]1CN(C(=O)[C@@H]2CN(C)C[C@H]2c2ccc(F)cc2F)C[C@H](C)[C@@]1(O)c1ccc(F)cc1 | pEC50 (Melanocortin receptor 5 [3]): 4.82; Emax (Melanocortin receptor 5 [5]): 100%
 |  | 5.41 |  | C[C@@H]1CN(C(=O)C2CN(C(C)(C)C)CC2c2ccc(F)cc2F)C[C@H](C)[C@@]1(O)c1ccccc1 (mixture of isomers) | 
 |  | 6.46 |  | C[C@@H]1CN(C(=O)[C@@H]2CN(C(C)(C)C)C[C@H]2c2ccc(F)cc2F)C[C@H](C)[C@@]1(O)c1ccc(C#N)cc1 | 
 |  | 6.66 |  | CC(C)N1C[C@@H](C(=O)N2C[C@@H](C)[C@](O)(c3ccc(F)cc3F)[C@@H](C)C2)[C@H](c2ccc(F)cc2F)C1 | 
 |  | 6.89 |  | C[C@@H]1CN(C(=O)[C@@H]2CN(C)C[C@H]2c2ccc(F)cc2F)C[C@H](C)[C@@]1(O)c1ccc(Cl)cc1 | 
 |  | 6.83 |  | CCN1C[C@@H](C(=O)N2C[C@@H](C)[C@](O)(c3ccc(F)cc3)[C@@H](C)C2)[C@H](c2ccc(F)cc2F)C1 | 
 |  | 7.16 |  | CCN1C[C@@H](C(=O)N2C[C@@H](C)[C@](O)(c3ccc(F)c(F)c3)[C@@H](C)C2)[C@H](c2ccc(F)cc2F)C1 | 
6.30 | 6.46 | 7.49 | 7.21 | C[C@@H]1CN(C(=O)[C@H]2CN(C3CCC3)C[C@@H]2c2ccc(F)cc2F)C[C@H](C)[C@@]1(O)c1ccccc1 | Emax (Melanocortin receptor 3 [7]): 81%; Emax [8]: 79%
 |  | 7.28 |  | CC(C)N1C[C@@H](C(=O)N2C[C@@H](C)[C@](O)(c3ccc(F)cc3)[C@@H](C)C2)[C@H](c2ccc(F)cc2F)C1 | 
 |  | 7.28 |  | COc1ccc([C@@]2(O)[C@H](C)CN(C(=O)[C@@H]3CN(C(C)(C)C)C[C@H]3c3ccc(F)cc3F)C[C@@H]2C)cc1 | 
 |  | 6.43 |  | COCCN1C[C@H](C(=O)N2C[C@@H](C)[C@](O)(c3ccccc3)[C@@H](C)C2)[C@@H](c2ccc(F)cc2F)C1 | logD [9]: 3.1; microsomal CLint [10]: 84 µL/min/mg
6.31 | < 5.51 | 8.22 | 8.00 | C[C@@H]1CN(C(=O)[C@H]2CN(c3cccnn3)C[C@@H]2c2ccc(F)cc2F)C[C@H](C)[C@@]1(O)c1ccccc1 | Emax (Melanocortin receptor 3 [7]): 89%; pEC50 (Melanocortin receptor 5 [3]): < 4.70; logD [9]: 3.3; microsomal CLint [10]: 243 µL/min/mg
 |  | 6.93 |  | C[C@@H]1CN(C(=O)[C@H]2CN(c3cncnc3)C[C@@H]2c2ccc(F)cc2F)C[C@H](C)[C@@]1(O)c1ccccc1 | 
 |  | 6.80 |  | C[C@@H]1CN(C(=O)[C@@H]2CNC[C@H]2c2ccc(F)cc2F)C[C@H](C)[C@@]1(O)c1cccc(F)c1 | 
5.44 | 5.73 | 8.15 | 7.28 | C[C@@H]1CN(C(=O)[C@H]2CN(c3cccnn3)C[C@@H]2c2ccc(F)cc2F)C[C@H](C)[C@@]1(O)c1ccccn1 | Emax (Melanocortin receptor 3 [7]): 75%; Emax [8]: 67%; logD [9]: 3; microsomal CLint [10]: > 440 µL/min/mg
 |  | 7.05 |  | CC(C)[C@@]1(O)[C@H](C)CN(C(=O)[C@H]2CN(c3cccnn3)C[C@@H]2c2ccc(F)cc2F)C[C@@H]1C | 
7.15 | < 4.78 | 7.82 | 7.10 | C[C@@H]1CN(C(=O)[C@H]2CN(c3ccccn3)C[C@@H]2c2ccc(F)cc2F)C[C@H](C)[C@@]1(O)c1ccccc1 | Emax (Melanocortin receptor 3 [7]): 78%; pEC50 (Melanocortin receptor 5 [3]): 6.02; Emax (Melanocortin receptor 5 [5]): 29%
 |  | 6.97 |  | C[C@@H]1CN(C(=O)[C@@H]2CN(C(C)(C)C)C[C@H]2c2ccc(F)cc2F)C[C@H](C)[C@@]1(O)c1ccc(C(F)(F)F)cc1 | logD [9]: 4.1; microsomal CLint [10]: < 7 µL/min/mg
4.97 | 5.18 | 7.21 | 6.75 | C[C@@H]1CN(C(=O)[C@@H]2CN(C(C)(C)C)C[C@H]2c2ccc(F)cc2F)C[C@H](C)[C@@]1(O)c1ccc(F)cc1F | Emax [8]: 93%; Emax (Melanocortin receptor 5 [5]): 84%
5.38 | < 4.78 | 7.09 | 6.76 | C[C@@H]1CN(C(=O)[C@H]2CN(c3cccnn3)C[C@@H]2c2ccc(F)cc2F)C[C@H](C)[C@@]1(O)C1CC1 | Emax (Melanocortin receptor 3 [7]): 42%
< 4.72 | < 5.11 | 6.14 | 5.97 | C[C@@H]1CN(C(=O)[C@@H]2CN(C)C[C@H]2c2ccc(F)cc2F)C[C@H](C)[C@@]1(O)c1ccccc1 | pEC50 (Melanocortin receptor 5 [3]): < 4.70
5.13 | 5.41 | 7.68 | 7.25 | CCC[C@@]1(O)[C@H](C)CN(C(=O)[C@H]2CN(c3cccnn3)C[C@@H]2c2ccc(F)cc2F)C[C@@H]1C | Emax (Melanocortin receptor 3 [7]): 79%; Emax [8]: 104%; logD [9]: 2.8; microsomal CLint [10]: > 440 µL/min/mg
 |  | < 5.00 |  | C[C@@H]1CN(C(=O)[C@H]2CN(C(C)(C)C)C[C@@H]2c2ccc(F)cc2F)C[C@H](C)[C@@]1(O)c1ccccc1 | 

From ChEMBL document CHEMBL1156187, “Discovery of a selective small-molecule melanocortin-4 receptor agonist with efficacy in a pilot study of sexual dysfunction in humans” (J Med Chem, 2010)
